One compound from patent publication US4372961A, “Derivatives of rifamycins, their preparation and pharmaceutical compositions thereof” (priority 1980, dated 1983) can be followed below.

This test concerns Staphylococcus aureus. Nature of the test: antibiotic activity (MIC) on Staphylococcus aureus. Format: cell-based.

Each structure is given as a SMILES string. Converted amounts (≈) assume the structure as drawn.

A word on the MIC: it is the smallest concentration in the dilution series that meets the test's criterion for growth inhibition. A high value points to a less susceptible organism.

Consider `CO[C@H]1/C=C/O[C@@]2(C)Oc3c(C)c(O)c4c(O)c(c(/C=N/N5CCN(C)CC5)c(O)c4c3C2=O)NC(=O)/C(C)=C\C=C\[C@H](C)[C@H](O)[C@@H](C)[C@@H](O)[C@@H](C)[C@H](OC(C)=O)[C@@H]1C` [rifampicin], for which the minimal inhibitory concentration (MIC) is approximately 0.01 µg/mL (≈ 0.0122 µM).
